Patent publication US20110124701A1, “USE OF HDAC INHIBITORS FOR THE TREATMENT OF LYMPHOMAS” (NOVARTIS AG, priority 2006, published 2011)

Tests used:
HH CTCL cell line = assay: Monolayer growth inhibition assay (MTT/MTS), HH; assay type: cell-based
Description: (§1) The antibiotics penicillin 100 units/mL) and streptomycin (100 μg/mL) were added to prevent bacterial contamination and maintained at 37° C. and 5% CO2 environment in a sterile incubator.
(§2) The MTT is a colorimetric assay to determine the cell proliferation rate. The yellow tetrazolium MTT (3-(4,5-dimethylthiazolyl-2)-2,5-diphenyltetrazolium bromide) is reduced by metabolically active cells, in part by the action of dehydrogenase enzymes, to generate reducing equivalents, such as NADH and NADPH. The resulting intracellular purple formazan can be solubilized and quantified by spectrophotometric means. The signals produced is directly proportional to the cell numbers. Describing the MTT assay in detail, experiments were done using 6-point or 9-point drug titrations in multi-well tissue culture dishes, with outer rows left empty. Cells were suspended in complete media at densities of between 10^3 and 10^4 cell/mL, respectively, and added per well. The appropriate medium (200 μL) was then added. Twenty-four hours later, 10 μL of MTS solution, were added to one plates to determine the activity at the time of compound addition (T0). […] The T0 plate served as a reference for initial activity at the beginning of the experiment.
(§3) Compound addition began 24 hours after seeding, the same time as the T0 determination. […] Each of the six dilutions were added in triplicate and complete medium was added to the empty outer rows without cells. […] The plates were incubated at 37° C. for 72 hours from seeding. The MTS solution was added (as for the T0 plate) and read four hours later. In order to analyze the data, the average value of media alone (background) was subtracted from each experimental well and the triplicate values were averaged for each compound dilution. The following formulas were used to calculate percent growth.
(§4) If X>T0, % Growth=100×((X−T0)/(GC−T0))
(§5) If X<T0, % Growth=100×(X−T0)/T0)
(§6) T0=average value of T0 minus background GC=average value of untreated cells (in triplicate) minus background X=average value of compound treated cells (in triplicate) minus background […]

MJ CTCL cell line = assay: Monolayer growth inhibition assay (MTT/MTS), MJ; assay type: cell-based, human
Description: (§7) Cell lines derived from human CTCL (mycosis fungoides), HUT78, HUT102, HH and MJ were treated with Compound III (LBH589) to assess their sensitivity to the drug. Cells were generally maintained in artificial media, such as Dubelco Modified Eagle Medium (DMEM) or RPMI and supplemented with various levels up to 15% fetal bovine serum. The antibiotics penicillin 100 units/mL) and streptomycin (100 μg/mL) were added to prevent bacterial contamination and maintained at 37° C. and 5% CO2 environment in a sterile incubator.
(§8) The MTT is a colorimetric assay to determine the cell proliferation rate. The yellow tetrazolium MTT (3-(4,5-dimethylthiazolyl-2)-2,5-diphenyltetrazolium bromide) is reduced by metabolically active cells, in part by the action of dehydrogenase enzymes, to generate reducing equivalents, such as NADH and NADPH. The resulting intracellular purple formazan can be solubilized and quantified by spectrophotometric means. The signals produced is directly proportional to the cell numbers. Describing the MTT assay in detail, experiments were done using 6-point or 9-point drug titrations in multi-well tissue culture dishes, with outer rows left empty. Cells were suspended in complete media at densities of between 10^3 and 10^4 cell/mL, respectively, and added per well. The appropriate medium (200 μL) was then added. Twenty-four hours later, 10 μL of MTS solution, were added to one plates to determine the activity at the time of compound addition (T0). This plate was incubated at 37° C. for 4 hours and the optical density was measured on a Molecular Devices Thermomax at 490 nm using the Softmax program. The T0 plate served as a reference for initial activity at the beginning of the experiment.
(§9) Compound addition began 24 hours after seeding, the same time as the T0 determination. […] Each of the six dilutions were added in triplicate and complete medium was added to the empty outer rows without cells. The compounds were added to the plates singly or in combination with Compound III (LBH589). The plates were incubated at 37° C. for 72 hours from seeding. The MTS solution was added (as for the T0 plate) and read four hours later. In order to analyze the data, the average value of media alone (background) was subtracted from each experimental well and the triplicate values were averaged for each compound dilution. The following formulas were used to calculate percent growth.
as §4, §5, §6

advanced-stage CTCL = assay: Phase I study in patients with advanced-stage CTCL; assay type: in vivo, human
Description: Adult patients with histologically-confirmed, advanced solid tumors or non-Hodgkin's lymphoma including CTCL whose disease has progressed despite standard therapy or for whom no standard therapy exists, will be enrolled onto arms 1-3.
Patients with advanced-stage CTCL were entered into a Phase I study. All patients had progressed following prior systemic therapy. Patients were entered into the DLT, […], dose level 30 mg M,W,F cohort (n=1) or the subsequent MTD, maximum tolerated dose, dose level 20 mg M,W,F weekly (n=8). Compound (III) was continued until disease progression or unacceptable toxicity. The first three patients had 3 mm punch biopsies from CTCL-involved skin lesions performed at 0, 4, 8 and 24 hours after administration, which were subjected to gene expression profiling. Microarray analysis was performed using the Affymetrix U133 plus 2.0 GeneChip that has 47,000 probesets and interrogates 38,500 genes.

HuT78 CTCL cell line = assay: Monolayer growth inhibition assay (MTT/MTS), HuT78; assay type: cell-based
Description: as §1, §2, §3, §4, §5, §6

HuT102 CTCL cell line = assay: Monolayer growth inhibition assay (MTT/MTS), HuT102; assay type: cell-based, human
Description: as §7, §8, §9, §4, §5, §6

[1] = system: HH CTCL mouse tumor xenografts; assay: HH CTCL tumor xenograft in mice; assay type: in vivo; details: 2 weeks
Description: Additionally, Compound III (LBH589) induced the regression of the HH CTCL mouse tumor xenografts in vivo. Mice were implanted with the HH CTCL cell lines and after tumors have grown to 150 mm^3, the mice were separated into four groups each containing eight mice. The groups of mice were dosed intravenously with vehicle, 5 mg/kg, 10 mg/kg, or 15 mg/kg daily.

[2] = of 9 CTCL patients evaluable for response, 20 or 30 mg M,W,F

## Cc1[nH]c2ccccc2c1CCNCc1ccc(/C=C/C(=O)NO)cc1 [Compound III, N-hydroxy-3-[4-[[[2-(2-methyl-1H-indol-3-yl)-ethyl]-amino]methyl]phenyl]-2E-2-propenamide]
HH CTCL cell line; HH cells
  sensitivity (IC50) in words: extreme subnanomolar sensitivity
HH CTCL cell line; HH cells, 72 hours
  LD50 (concentration required to reduce cell number to 50% of the original inoculum): 0.0025 µM
HH CTCL cell line; Homo sapiens, HH, 72 h, read-out: IC50 (concentration required to inhibit cell growth by 50%)
  IC50: 700 pM
MJ CTCL cell line; Homo sapiens, 72 h, read-out: IC50 (concentration required to inhibit cell growth by 50%)
  IC50: 300 pM
MJ CTCL cell line; MJ cells
  sensitivity (IC50) in words: extreme subnanomolar sensitivity
MJ CTCL cell line; MJ cells, 72 hours
  LD50 (concentration required to reduce cell number to 50% of the original inoculum): >10 µM
MJ CTCL cell line; MJ cells, HTLV infection
  sensitivity to induced cell death in words: insensitive
advanced-stage CTCL; M,W,F weekly, CTCL patients
  MTD, maximum tolerated dose, dose level: 20 mg
advanced-stage CTCL; discontinued after 10 doses due to Grade III diarrhea
  time to progression of a responding patient with CR: 8 m
advanced-stage CTCL; human, in vivo
  DLT dose level: 30 mg
advanced-stage CTCL; [2]
  patients achieving stable disease (SD) with ongoing improvement: 1 patients
  patients attaining a complete response (CR): 2 patients
  patients attaining a partial response (PR): 2 patients
  patients progressed on treatment (PD): 4 patients
HuT78 CTCL cell line; HUT78 cells
  sensitivity (IC50) in words: extreme subnanomolar sensitivity
HuT78 CTCL cell line; Homo sapiens, HuT78, 72 h, read-out: IC50 (concentration required to inhibit cell growth by 50%)
  IC50: 200 pM
HuT78 CTCL cell line; HuT78 cells, 72 hours
  LD50 (concentration required to reduce cell number to 50% of the original inoculum): 0.003 µM
HuT102 CTCL cell line; HUT102 cells
  sensitivity (IC50) in words: extreme subnanomolar sensitivity
HuT102 CTCL cell line; HUT102 cells, HTLV infection
  sensitivity to induced cell death in words: insensitive
HuT102 CTCL cell line; Homo sapiens, HuT-102, 72 h, read-out: IC50 (concentration required to inhibit cell growth by 50%)
  IC50: 400 pM
HuT102 CTCL cell line; HuT102 cells, 72 hours
  LD50 (concentration required to reduce cell number to 50% of the original inoculum): >10 µM
[1]; 5 mg/kg daily iv
  effect on tumor growth: tumor growth inhibition
[1]; 10 mg/kg daily iv
  effect on tumor growth: almost complete tumor regression
[1]; 15 mg/kg daily iv
  effect on tumor growth: almost complete tumor regression
